We go through nine molecules from ChEMBL document CHEMBL1649078, “Novel antiviral C5-substituted pyrimidine acyclic nucleoside phosphonates selected as human thymidylate kinase substrates” (J Med Chem, 2011).

Data set [1] in a line: Inhibition of human recombinant UCK by Double reciprocal plot analysis.
A short description of data set [2]: (§1) Displacement of Mant-ATP from human recombinant UCK by fluorescence competition assay. The settings on record: read-out: Kd(app).
The species named for data set [3] is Homo sapiens. Description: Binding affinity to human recombinant UCK dCMP binding site.
The species named for data set [4] is Homo sapiens. Description: Activity at human recombinant UCK by Michaelis-Menten equation analysis.
In data set [5] the target is Thymidine kinase 2, mitochondrial (Homo sapiens) (UniProt O00142). Description: Inhibition of human recombinant TK2-mediated thymidine phosphorylation ar 0.3 mM.
Chain of Thymidine kinase 2, mitochondrial (Homo sapiens) (O00142 whole entry): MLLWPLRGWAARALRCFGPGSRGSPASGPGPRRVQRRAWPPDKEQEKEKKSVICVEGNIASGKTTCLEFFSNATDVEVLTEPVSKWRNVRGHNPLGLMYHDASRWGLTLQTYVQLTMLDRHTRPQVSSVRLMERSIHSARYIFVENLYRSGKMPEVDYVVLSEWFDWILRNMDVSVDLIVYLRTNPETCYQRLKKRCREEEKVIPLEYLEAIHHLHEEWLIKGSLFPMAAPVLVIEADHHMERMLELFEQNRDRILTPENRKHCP
The species entered for data set [6] is Homo sapiens. Description: Displacement of MABA-CDP from human recombinant UCK by fluorescence competition assay.
Data set [7] concerns the target Thymidine kinase, cytosolic (Homo sapiens) (UniProt P04183). Description: Inhibition of human recombinant TK1-mediated thymidine phosphorylation ar 0.3 mM.
The species named for data set [8] is Homo sapiens. Description: Binding affinity to human recombinant UCK ATP binding site.
The species named for data set [9] is Homo sapiens. Description: Binding affinity to human recombinant UCK by circular dichroism analysis.
The test system of data set [10] is Human betaherpesvirus 5. Description: Antiviral activity against HCMV AD169/Davis infected in human HEL cells assessed as reduction of virus-induced cytopathogenicity after 7 days. The format is functional, organism-based. The settings on record: Human betaherpesvirus 5, AD169/Davis, 168 h. In general terms: Damage to the host cells serves as the signal in cytopathic effect assays.

For data set [11], the system named is Human alphaherpesvirus 3. Description: Antiviral activity against thymidine kinase-deficient VZV 07/1 infected in human HEL cells assessed as reduction of virus-induced cytopathogenicity after 5 days. The format is functional, organism-based. The settings on record: Human alphaherpesvirus 3, 07/1, HEL, 120 h.
The subject of data set [12] is Human alphaherpesvirus 3. Description: Antiviral activity against VZV OKA expressing thymidine kinase infected in human HEL cells assessed as reduction of virus-induced cytopathogenicity after 5 days. It counts as functional, organism-based. The settings on record: Human alphaherpesvirus 3, OKA, 120 h.
Data set [13] relates to Human alphaherpesvirus 2. Description: Antiviral activity against HSV2 G infected in human HEL cells assessed as reduction of virus-induced cytopathogenicity after 7 days. It counts as functional, organism-based. The settings on record: Human alphaherpesvirus 2, strain G, 168 h.
The nature of data set [14]: Cytotoxicity against human HEL cells after 3 days. It counts as cell-based.
Data set [15] concerns Human alphaherpesvirus 1. Description: Antiviral activity against HSV1 KOS infected in human HEL cells assessed as reduction of virus-induced cytopathogenicity after 7 days. It counts as functional, organism-based. The settings on record: Human alphaherpesvirus 1, KOS, 168 h.
Data set [16] deals with Human alphaherpesvirus 1. Description: Antiviral activity against acyclovir-resistant thymidine kinase deficient HSV1 KOS infected in human HEL cells assessed as reduction of virus-induced cytopathogenicity after 7 days. The settings on record: Human alphaherpesvirus 1, KOS, 168 h. The format is functional, organism-based.
The species named for data set [17] is Homo sapiens. Described as §1.
Substrate in data set [18]: O=c1ccn(C/C=C/CP(=O)(O)O)c(=O)[nH]1
Description: (§2) Ratio of kcat/km for human recombinant TMPK by Michaelis-Menten equation analysis.

Substrate in data set [19]: Cc1cn(C/C=C/CCP(=O)(O)O)c(=O)[nH]c1=O
The data set is described as §2.

Substrate in data set [20]: Cc1cn(C/C=C/CP(=O)(O)O)c(=O)[nH]c1=O
The description is as §2.

Substrate in data set [21]: Cc1cn([C@H]2C[C@H](O)[C@@H](COP(=O)(O)O)O2)c(=O)[nH]c1=O
The data set is described as §2.

Substrate in data set [22]: O=c1[nH]c(=O)n(C/C=C/CP(=O)(O)O)cc1Br
Described as §2.

Substrate in data set [23]: O=c1[nH]c(=O)n(C/C=C/P(=O)(O)O)cc1Cl
The description is as §2.

Substrate in data set [24]: O=c1[nH]c(=O)n(C/C=C/CCP(=O)(O)O)cc1F
Described as §2.

Substrate in data set [25]: O=c1[nH]c(=O)n(C/C=C/CP(=O)(O)O)cc1F
Described as §2.

Substrate in data set [26]: O=c1ccn([C@H]2C[C@H](O)[C@@H](COP(=O)(O)O)O2)c(=O)[nH]1
The description is as §2.

Substrate in data set [27]: O=c1[nH]c(=O)n(C/C=C/CCP(=O)(O)O)cc1Br
Described as §2.

Substrate in data set [28]: O=c1ccn(C/C=C/CCP(=O)(O)O)c(=O)[nH]1
The description is as §2.

Substrate in data set [29]: Cc1cn(C/C=C/P(=O)(O)O)c(=O)[nH]c1=O
The data set is described as §2.

Substrate in data set [30]: O=c1[nH]c(=O)n([C@H]2C[C@H](O)[C@@H](COP(=O)(O)O)O2)cc1Br
Described as §2.

Substrate in data set [31]: O=c1[nH]c(=O)n(C/C=C/CCP(=O)(O)O)cc1Cl
The description is as §2.

Substrate in data set [32]: Cc1cn([C@H]2C[C@H](N=[N+]=[N-])[C@@H](COP(=O)(O)O)O2)c(=O)[nH]c1=O
The data set is described as §2.

Substrate in data set [33]: O=c1[nH]c(=O)n(C/C=C/CP(=O)(O)O)cc1Cl
The description is as §2.

Substrate in data set [34]: O=c1ccn(C/C=C/CP(=O)(O)O)c(=O)[nH]1
Description: (§3) Activity at human recombinant TMPK by Michaelis-Menten equation analysis.

Substrate in data set [35]: Cc1cn(C/C=C/CCP(=O)(O)O)c(=O)[nH]c1=O
Described as §3.

Substrate in data set [36]: Cc1cn(C/C=C/CP(=O)(O)O)c(=O)[nH]c1=O
The data set is described as §3.

Substrate in data set [37]: Cc1cn([C@H]2C[C@H](O)[C@@H](COP(=O)(O)O)O2)c(=O)[nH]c1=O
Described as §3.

Substrate in data set [38]: O=c1[nH]c(=O)n(C/C=C/CP(=O)(O)O)cc1Br
The description is as §3.

Substrate in data set [39]: O=c1[nH]c(=O)n(C/C=C/CCP(=O)(O)O)cc1F
The data set is described as §3.

Substrate in data set [40]: O=c1[nH]c(=O)n(C/C=C/CP(=O)(O)O)cc1F
Described as §3.

Substrate in data set [41]: O=c1ccn([C@H]2C[C@H](O)[C@@H](COP(=O)(O)O)O2)c(=O)[nH]1
The data set is described as §3.

Substrate in data set [42]: O=c1[nH]c(=O)n(C/C=C/CCP(=O)(O)O)cc1Br
The description is as §3.

Substrate in data set [43]: O=c1ccn(C/C=C/CCP(=O)(O)O)c(=O)[nH]1
The description is as §3.

Substrate in data set [44]: Cc1cn(C/C=C/P(=O)(O)O)c(=O)[nH]c1=O
The description is as §3.

Substrate in data set [45]: O=c1[nH]c(=O)n([C@H]2C[C@H](O)[C@@H](COP(=O)(O)O)O2)cc1Br
Described as §3.

Substrate in data set [46]: O=c1[nH]c(=O)n(C/C=C/CCP(=O)(O)O)cc1Cl
Described as §3.

Substrate in data set [47]: O=c1[nH]c(=O)n(C/C=C/CP(=O)(O)O)cc1Cl
The description is as §3.

Activity calls are given as the source filed them. Some results are limits rather than exact numbers.

Chain of Thymidine kinase, cytosolic (Homo sapiens) (P04183 whole entry): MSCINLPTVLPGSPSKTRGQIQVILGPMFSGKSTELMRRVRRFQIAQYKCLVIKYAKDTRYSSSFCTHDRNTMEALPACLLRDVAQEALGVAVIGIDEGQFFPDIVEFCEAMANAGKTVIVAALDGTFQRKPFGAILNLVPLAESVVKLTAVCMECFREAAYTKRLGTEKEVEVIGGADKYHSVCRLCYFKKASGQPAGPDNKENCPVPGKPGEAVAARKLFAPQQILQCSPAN

By Ki is commonly meant a dissociation constant, usually derived from enzyme kinetics or from competition with a known ligand. Broadly, the inhibition is the percentage by which the read-out fell short of the control. As to `O=c1[nH]c(=O)n(C/C=C/CP(=O)(O)O)cc1Cl`, in data set [1], the Ki worked out at 250 µM. In data set [2], the Kd is 170 µM. The outcome in data set [3] and in data set [8] was Active. The result in data set [4] and in data set [6] was inactive. In addition, the inhibition in [5] and in data set [7] was 15% throughout.
With `Nc1ccn([C@H]2C[C@H](O)[C@@H](COP(=O)(O)O)O2)c(=O)n1`, the outcome in [9] was inactive.
`Cc1cn(C/C=C/CP(=O)(O)O)c(=O)[nH]c1=O`: in data set [1], the Ki is 1200 µM. Also, the result in data set [4] and in data set [6] was inactive.
In general, EC50 refers to the concentration giving half of the maximal effect. A word on the CC50: it is the concentration giving 50% cytotoxicity. For the molecule `CC(C)(C)C(=O)OCOP(=O)(C/C=C/Cn1cc(Br)c(=O)[nH]c1=O)OCOC(=O)C(C)(C)C`, the EC50 in data set [10] was over 40 µM; in data set [11], 15 µM; in data set [12], 20 µM; in data set [13], 16 µM; in [15], 20 µM; in data set [16], 19 µM. Moreover, the CC50 at 72 h in data set [14] was 34 µM. This molecule yielded an MCC at 72 h in data set [14] of 200 µM. In addition, the outcome in data set [4] and in data set [6] was inactive.
Take `Nc1ccn(C[C@@H](CO)OCP(=O)(O)O)c(=O)n1` [CIDOFOVIR]: the EC50 in data set [10] stood at 1.2 µM; in data set [11], 0.07 µM; in data set [12] it was 0.044 µM; in [13], 2 µM; in data set [15] it was 3.5 µM; in [16], 2.5 µM. The midpoint of cytotoxicity in [14], the CC50 at 72 h, lay at 280 µM. In data set [14], this molecule returned an MCC at 72 h of over 250 µM. In addition, the result in data set [9] and in data set [17] was inactive.
Turning to `Nc1ncnc2c1ncn2CCOCP(=O)(O)O`, in data set [17], the result was inactive.
With `CC(C)(C)C(=O)OCOP(=O)(C/C=C\Cn1cc(Br)c(=O)[nH]c1=O)OCOC(=O)C(C)(C)C`, the EC50 is over 200 µM in [10]; 110 µM in data set [11]; 97 µM in data set [12]; 45 µM in data set [13]; over 200 µM in data set [15]; over 200 µM in data set [16]. Moreover, half-maximal cytotoxicity in [14] (CC50 at 72 h) was put at 70 µM. The molecule further came in with an MCC at 72 h in [14] of over 200 µM. Besides, the result in data set [4] and in data set [6] was inactive.
Consider `C[C@H](Cn1cnc2c(N)ncnc21)OCP(=O)(O)O`, for which, in data set [17], the outcome was inactive.

B1: Thymidylate kinase (Homo sapiens), P23919 (protein)
chain: MAARRGALIVLEGVDRAGKSTQSRKLVEALCAAGHRAELLRFPERSTEIGKLLSSYLQKKSDVEDHSVHLLFSANRWEQVPLIKEKLSQGVTLVVDRYAFSGVAFTGAKENFSLDWCKQPDVGLPKPDLVLFLQLQLADAAKRGAFGHERYENGAFQERALRCFHQLMKDTTLNWKMVDASKSIEAVHEDIRVLSEDAIRTATEKPLGELWK
The kcat/Km is the second-order rate constant that governs catalysis at low substrate concentration. As usually defined, the Km is the substrate concentration at which the rate is half of its maximum. What is called kcat is the maximal rate divided by the concentration of active sites. B1: the kcat/Km in data set [18] was found to be 280 M⁻¹ s⁻¹; in [19] it was 3200 M⁻¹ s⁻¹; in [20], 35000 M⁻¹ s⁻¹; in [21], 150000 M⁻¹ s⁻¹; in [22], 45000 M⁻¹ s⁻¹; in data set [23], 80 M⁻¹ s⁻¹. In addition, the specificity constant (kcat/Km) in data set [24] amounted to 47 M⁻¹ s⁻¹; in data set [25], 730 M⁻¹ s⁻¹; in data set [26] it was 28000 M⁻¹ s⁻¹; in [27], 360 M⁻¹ s⁻¹; in data set [28], 30 M⁻¹ s⁻¹; in [29], 600 M⁻¹ s⁻¹. Further, the kcat/Km in data set [30] worked out at 120000 M⁻¹ s⁻¹; in data set [31] it was 660 M⁻¹ s⁻¹; in [32], 1000 M⁻¹ s⁻¹; in data set [33], 4100 M⁻¹ s⁻¹. For the same molecule, the Km in data set [34] stood at 1700 µM; in data set [35], 100 µM; in [36] it was 24 µM; in [37], 20 µM; in data set [38], 20 µM; in [39], 1900 µM. The Km in data set [40] is 1000 µM; in data set [41], 170 µM; in data set [42], 160 µM; in data set [43] it was 2500 µM; in data set [44], 1000 µM; in data set [45], 10 µM. Also, the Km in [46] came out at 150 µM; in [47] it was 130 µM. Moreover, the kcat in data set [34] stood at 0.48 s⁻¹; in [35], 0.32 s⁻¹; in data set [36], 0.84 s⁻¹; in data set [37] it was 3 s⁻¹; in [38] it was 0.9 s⁻¹; in data set [39] it was 0.09 s⁻¹. For the same molecule, the kcat in [40] came out at 0.73 s⁻¹; in data set [41], 4.8 s⁻¹; in data set [42], 0.058 s⁻¹; in data set [43] it was 0.074 s⁻¹; in [44] it was 0.6 s⁻¹; in data set [45], 1.2 s⁻¹. In addition, the results for the kcat in data set [46] and in data set [47] were 0.1 s⁻¹ and 0.5 s⁻¹, respectively.
